One assay deals with Sprague-Dawley rat. Kind of assay: Mean arterial blood pressure in anesthetized rats after femoral vein bolus (Examples 5, 6). The class given is in vivo. Conditions: 50 mg/kg. The text has this: Rats were anesthetized by intraperitoneal injection of pentobarbital and the femoral arteries and veins accessed by local cut down. The artery was then cannulated and the blood pressure monitored continuously using a Viggo Spectramed pressure transducer attached to a Gould recorder. An IBM PC (DATA Q Codas) was used for data acquisition.

A short description of assay [1]: Endogenous SNO-Hb and Hb(FeII)NO in rat blood by photolysis-chemiluminescence. The assay is classed as in vivo. Conditions: 45 minutes after infusion of 50 mg/kg. The text has this: A highly sensitive photolysis-chemiluminescence methodology was employed, which had been used for measuring RSNOs (S-nitrosothiols) in biological systems (Gaston, B., et al., Proc. Natl. Acad. Sci. USA 90:10957-10961 (1993); Stamler, J. S., et al., Proc. Natl. Acad. Sci USA 89:7674-7677 (1992)). The method involves photolytic liberation of NO from the thiol, which is then detected in a chemiluminesence spectrometer by reaction with ozone. […]
Blood was obtained from the left ventricle (arterial) and jugular vein (venous) of anesthetized Sprague-Dawley rats. […] In 24 rats, Hb samples were divided in two aliquots which were then treated or not treated with 10-fold excess HgCl2 over protein concentration as measured by the method of Bradford. […] Under these conditions, any nitrite present was converted to S-nitrosoglutathione, which was then measured by photolysis-chemiluminescence (detection limit ˜1 nM). SNO-Hb was present in all arterial samples, and levels determined by this method (286±33 nM) were virtually identical to and not statistically different from those shown in Table 2. […]
A highly sensitive photolysis-chemiluminescence methodology was employed. […] The method involves photolytic liberation of NO from the thiol, which is then detected in a chemiluminesence spectrometer by reaction with ozone. […]

The subject of assay [2] is rabbit thoracic aortic rings, endothelium removed. Kind of assay: Oxygen-dependent vessel ring bioassay (Examples 22, 23). The assay is classed as cell-based.
The test system of assay [3] is rat brain (caudatoputamen nucleus). Kind of assay: Brain blood flow in rats by H2 clearance (Example 12). The class given is in vivo. Particulars: rats breathing 21% O2; 100 or 1000 nmol/kg. As to the method: SNO-Hb(FeII)O2, having a SNO/Hb ratio of 2, was prepared (from HbA0) by reaction with S-nitrosothiol. Rats breathing 21% O2 were injected (time 0) with Hbs prepared from HbA0 as indicated in FIG. 10 (open circles, SNO-Hb (100 nmol/kg); filled circles, SNO-Hb (1000 nmol/kg); filled squares, unmodified Hb (1000 nmol/kg)). Three rats were used per experiment. Blood flow was measured in brain using the H2 clearance method; microelectrodes were placed in the brain stereotactically. […] NO group release is promoted by local tissue hypoxia.

Assay [4] concerns substantia nigra, caudate putamen nucleus and parietal cortex of Sprague-Dawley rats. Kind of assay: O2-dependent local cerebral blood flow in rats (Example 25). Conditions: 1 μmol/kg infused over 3 minutes. The assay is classed as in vivo, rat. Here is the method:
Adult male Sprague-Dawley rats (290-350 g) were anesthetized with sodium pentobarbital (50 mg/kg IP), intubated and ventilated with a small animal respirator (Edco Scientific Inc., Chapel Hill, N.C.) at a rate and tidal volume to maintain normal values of PaCO2 (35-45 mm Hg; PaCO2=systemic arterial blood carbon dioxide tension). The femoral vein and artery were cannulated for infusion of drugs and for continuous monitoring of systemic blood pressure, respectively. Aliquots of arterial blood (200 μl) were drawn periodically to measure blood gas tensions and pH (Instrumentation Laboratory Co., model 1304 blood gas/pH analyzer). The blood was replaced intravenously with three volumes of normal saline. The inspired O2 concentration was varied using premixed gases balanced with nitrogen. The tissue PO2 was measured continuously with polarographic platinum microelectrodes (50 μm O.D. coated with hydrophobic gas permeable Nafion) implanted stereotaxically in both the right and left hippocampus (AP-3.4 mm, ML+2.2 mm), caudate putamen nucleus and substantia nigra (see coordinates below) (Young, W., Stroke, 11:552-564 (1980); Heiss, W. D. and Traupett, H., Stroke, 12:161-167 (1981); Dewhirst, M. W. et al., Cancer Res., 54:3333-3336 (1994); Kerger, H. et al., Am. J. Physiol., 268:H802-H810 (1995)). The PO2 electrodes were polarized to −0.65V against a distant Ag/AgCl reference located on the tail and the current flow was measured using a low-impedance nA-meter. Regional arterial PO2 was adjusted by changing the inspired O2 concentration and atmospheric pressure.
Polarographic hydrogen (H2)-sensitive microelectrodes were implanted stereotaxically in the substantia nigra (AP −5.3 mm, ML −2.4 mm to the bregma, depth 3.2 mm), caudate putamen nucleus (CPN) (AP +0.8 mm, ML −2.5 mm, depth 5.2 mm) and parietal cortex, for measurement of regional blood flow (Young, W., Stroke, 11:552-564 (1980); Heiss, W. D. and Traupett, H., Stroke, 12:161-167 (1981)). The microelectrodes were made from platinum wire and insulated with epoxy, with the exception of the tip (1 mm) which was coated with Nafion. For placement, the electrodes were mounted on a micromanipulator and the rat's head was immobilized in a Kopf stereotaxic frame. H2-sensitive electrodes were polarized to +400 mV against a distant reference electrode on the tail, and the polarographic current was measured using a low-impedance nA meter during and after the inhalation of hydrogen gas (2.5%) for 1 min. Both the hydrogen clearance curves and voltage for oxygen measurements were made using PC WINDAQ (software, DI-200 AC, Dataq Instruments, Inc., Akron, Ohio). Cerebral blood flow was calculated using the initial slope method (Young, W., Stroke, 11:552-564 (1980); Heiss, W. D. and Traupett, H., Stroke, 12:161-167 (1981)). Regional blood flow responses were monitored for 30 min. prior to and 30 min. following drug administration; hemoglobins were given at time 0.
The cerebrovascular effects of SNO-Hb were measured in adult male Sprague-Dawley rats using O2 and H2 (blood flow)-sensitive microelectrodes that were placed stereotaxically in several regions of the brain as for Example 24.

For another assay, the system named is rat red blood cells. Kind of assay: S-nitrosation of intraerythrocytic Hb on incubation of red blood cells with RSNOs. The assay is classed as cell-based. Conditions: oxygenated rat red blood cells. As to the method:
Incubation of rat erythrocytes with S-nitrosocysteine (equimolar to heme (5 mM); phosphate buffer pH 7.4, 25° C.) leads to rapid formation of intracellular SNO-Hb(FeII)O2. […] By 60 min, 3 of the 4 available SH groups of Hb were S-nitrosated (note that rat Hb contains 4 reactive SH groups). […] Spectrum A is that of SNO-Hb isolated from erythrocytes following G-25 chromatography. Treatment of A with dithionite results in reduction of the S—NO moiety, liberating free NO which is autocaptured by deoxy Hb, forming Hb(FeII)NO (note that dithionite simultaneously deoxygenates Hb) (spectrum C). […] The spectrum of Hb(FeII)NO containing 4 NO's per tetramer is shown for comparison (inset, spectrum B).
At shown intervals, red blood cells were pelleted rapidly by centrifugation, washed three times, lysed in deionized water at 4° C., and the cytosolic fraction subjected to rapid desalting across G-25 columns. Intracellular SNO-Hb was measured by the method of Saville (Gaston, B., et al., (1992); Stamler, J. S., et al., Proc. Natl. Acad. Sci. USA, 89:444-448 (1992)), and confirmed spectroscopically (inset of FIG. 3A) as described above.

Consider `CNC(=N)NCCC[C@H](N)C(=O)O` [L-NMMA, N^ω-monomethyl-L-arginine], for which, in the assay on Sprague-Dawley rat, the “increase in blood pressure” value is given as “about 20 mm Hg”. In assay [1], the “depletion of SNO-Hb” value was 82% and the “depletion of total Hb-NO” value is reported as 50±18%.

“SNO-Hb: S-nitrosohemoglobin, hemoglobin S-nitrosylated at thiol groups (cysβ93)”: in assay [2] (1 μM, rings contracted with phenylephrine under hypoxic conditions (6-7 torr)), the “effect on vessel tone” value is “relaxations”. The “effect of 10 μM glutathione on the response” value in assay [2] (10 μM glutathione in bioassay chambers) was “potentiates the vasorelaxant response”. In addition, the “effect on vessel tension” value in assay [2] (95% O2 or 21% O2 (R-structure)) is given as “contract blood vessels”; in assay [2] (<1% O2 (~6 torr), T-structure), “does not”. Also, the “blood flow to the brain” value in assay [3] was “improves blood flow to the brain”. The results for the “local cerebral blood flow” value in assay [4] (21% O2), in assay [4] (100% O2 + 3 ATA) and in assay [4] (100% O2) were “improved blood flow in all three regions of the brain tested”, “tended to decrease cerebral flow to similar extents” and “significantly attenuated”, respectively.

`N[C@@H](CCC(=O)N[C@@H](CSN=O)C(=O)NCC(=O)O)C(=O)O` [GSNO, S-nitrosoglutathione]: in assay [2] (95%, 21%, <1% O2 (FIG. 20D)), the “vasorelaxant effects, dependence on PO2” value is listed as “largely independent of PO2”. Also, the “local cerebral blood flow” value in assay [4] (100% O2 + 3 ATA) and in assay [4] (100% O2) was “increased brain perfusion” in each case. Besides, in the assay on rat red blood cells, the “formation of intraerythrocytic SNO-Hb on treatment of red blood cells” value is reported as “not”.

These data come from patent US7538193B2, “NO-modified hemoglobins and uses therefor” (Duke University, priority 1995, dated 2009).
